Reference: patent US9999619B2, “Piperidin-4-yl azetidine derivatives as JAK1 inhibitors” (Incyte Corporation, priority 2010, dated 2018)

Key:
Format in all cases: biochemical
[1] = target: human JAK1 (a.a. 837-1142); assay: In vitro JAK kinase assay (HTRF, phosphorylation of a biotinylated peptide), JAK1; details: ratio of JAK2 IC50 to JAK1 IC50, measured at 1 mM ATP
Protocol: (§1) Compounds herein were tested for inhibitory activity of JAK targets according to the following in vitro assay described in Park et al., Analytical Biochemistry 1999, 269, 94-104. The catalytic domains of human JAK1 (a.a. 837-1142), Jak2 (a.a. 828-1132) and Jak3 (a.a. 781-1124) with an N-terminal His tag were expressed using baculovirus in insect cells and purified. The catalytic activity of JAK1, JAK2 or JAK3 was assayed by measuring the phosphorylation of a biotinylated peptide. The phosphorylated peptide was detected by homogenous time resolved fluorescence (HTRF). […] Reactions were carried out at room temperature for 1 hr and then stopped with 20 μL 45 mM EDTA, 300 nM SA-APC, 6 nM Eu-Py20 in assay buffer (Perkin Elmer, Boston, Mass.). Binding to the Europium labeled antibody took place for 40 minutes and HTRF signal was measured on a Fusion plate reader (Perkin Elmer, Boston, Mass.).

[2] = target: human JAK1 (a.a. 837-1142) (Homo sapiens, UniProt P23458); assay: as above; details: measured at 1 mM ATP
Protocol: as §1

Jak2 (a.a. 828-1132) = Jak2 (a.a. 828-1132) (Homo sapiens (Human), UniProt O60674); assay: In vitro JAK kinase assay (HTRF, phosphorylation of a biotinylated peptide), JAK2; details: measured at 1 mM ATP
Protocol: as §1

Sequence of Jak2 (a.a. 828-1132) (O60674 828-1132): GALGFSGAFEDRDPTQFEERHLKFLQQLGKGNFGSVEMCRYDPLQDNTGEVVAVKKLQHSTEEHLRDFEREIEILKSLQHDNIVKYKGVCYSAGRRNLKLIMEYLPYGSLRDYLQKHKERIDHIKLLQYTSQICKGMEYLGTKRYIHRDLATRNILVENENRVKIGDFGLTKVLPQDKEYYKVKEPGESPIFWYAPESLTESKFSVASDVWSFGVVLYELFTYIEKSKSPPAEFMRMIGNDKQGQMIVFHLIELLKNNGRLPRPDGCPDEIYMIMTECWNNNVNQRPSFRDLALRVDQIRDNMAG

| Compound | IC50 Ratio JAK2/JAK1 [1] | IC50 [2] | IC50 (Jak2 (a.a. 828-1132)) |
| --- | --- | --- | --- |
| N#CCC1(n2cc(-c3ncnc4[nH]ccc34)cn2)CN(C2CCN(C(=O)c3ccccc3C#N)CC2)C1 [Example 10, 2-[(4-{3-(cyanomethyl)-3-[4-(7H-pyrrolo[2,3-d]pyrimidin-4-yl)-1H-pyrazol-1-yl]azetidin-1-yl}piperidin-1-yl)carbonyl]benzonitrile] | 4.4 | 5 to 20 nM | 10 to 50 nM |
| N#CCC1(n2cc(-c3ncnc4[nH]ccc34)cn2)CN(C2CCN(C(=O)c3cccc(C#N)c3)CC2)C1 [Example 11, 3-[(4-{3-(cyanomethyl)-3-[4-(7H-pyrrolo[2,3-d]pyrimidin-4-yl)-1H-pyrazol-1-yl]azetidin-1-yl}piperidin-1-yl)carbonyl]benzonitrile] | 7.2 | 5 to 20 nM | 10 to 50 nM |
| N#CCC1(n2cc(-c3ncnc4[nH]ccc34)cn2)CN(C2CCN(C(=O)c3ccc(C#N)cc3)CC2)C1 [Example 12, 4-[(4-{3-(cyanomethyl)-3-[4-(7H-pyrrolo[2,3-d]pyrimidin-4-yl)-1H-pyrazol-1-yl]azetidin-1-yl}piperidin-1-yl)carbonyl]benzonitrile] | 5.2 | 20 to 30 nM | > 100 nM |
| N#CCC1(n2cc(-c3ncnc4[nH]ccc34)cn2)CN(C2CCN(C(=O)c3cccc(Cl)n3)CC2)C1 [Example 13, {1-{1-[(6-chloropyridin-2-yl)carbonyl]piperidin-4-yl}-3-[4-(7H-pyrrolo[2,3-d]pyrimidin-4-yl)-1H-pyrazol-1-yl]azetidin-3-yl}acetonitrile] | 5.3 | ≤ 5 nM | 10 to 50 nM |
| N#CCC1(n2cc(-c3ncnc4[nH]ccc34)cn2)CN(C2CCN(C(=O)c3cnccn3)CC2)C1 [Example 14, {1-[1-(pyrazin-2-lcarbonyl)piperidin-4-yl]-3-[4-(7H-pyrrolo[2,3-d]pyrimidin-4-yl)-1H-pyrazol-1-yl]azetidin-3-l}acetonitrile] | 3.2 | 5 to 20 nM | 10 to 50 nM |
| N#CCC1(n2cc(-c3ncnc4[nH]ccc34)cn2)CN(C2CCN(C(=O)c3ccsc3)CC2)C1 [Example 15, {3-[4-(7H-pyrrolo[2,3-d]pyrimidin-4-yl)-1H-pyrazol-1-yl]-1-[1-(3-thienylcarbonyl)piperidin-4-yl]azetidin-3-yl}acetonitrile] | 5.3 | 5 to 20 nM | 10 to 50 nM |
| N#CCC1(n2cc(-c3ncnc4[nH]ccc34)cn2)CN(C2CCN(C(=O)c3ncco3)CC2)C1 [Example 16, {1-[1-(1,3-oxazol-2-ylcarbonyl)piperidin-4-yl]-3-[4-(7H-pyrrolo[2,3-d]pyrimidin-4-yl)-1H-pyrazol-1-yl]azetidin-3-yl}acetonitrile] | 2.5 | 5 to 20 nM | 10 to 50 nM |
| N#CCC1(n2cc(-c3ncnc4[nH]ccc34)cn2)CN(C2CCN(C(=O)c3cccc(Br)c3)CC2)C1 [Example 20, {1-[1-(3-bromobenzoyl)piperidin-4-yl]-3-[4-(7H-pyrrolo[2,3-d]pyrimidin-4-yl)-1H-pyrazol-1-yl]azetidin-3-yl}acetonitrile] | 4.2 | ≤ 5 nM | ≤ 10 nM |
| N#CCC1(n2cc(-c3ncnc4[nH]ccc34)cn2)CN(C2CCN(C(=O)c3cccc(OC(F)(F)F)c3)CC2)C1 [Example 21, (3-[4-(7H-pyrrolo[2,3-d]pyrimidin-4-yl)-1H-pyrazol-1-yl]-1-{1-[3-(trifluoromethoxy)benzoyl]piperidin-4-yl}azetidin-3-yl)acetonitrile] | 3.2 | 5 to 20 nM | 10 to 50 nM |
| N#CCC1(n2cc(-c3ncnc4[nH]ccc34)cn2)CN(C2CCN(C(=O)c3cccc(C(F)(F)F)c3)CC2)C1 [Example 22, (3-[4-(7H-pyrrolo[2,3-d]pyrimidin-4-yl)-1H-pyrazol-1-yl]-1-{1-[3-(trifluoromethyl)benzoyl]piperidin-4-yl}azetidin-3-yl)acetonitrile] | 3.2 | 5 to 20 nM | 10 to 50 nM |
| N#CCC1(n2cc(-c3ncnc4[nH]ccc34)cn2)CN(C2CCN(C(=O)c3cc(F)cc(C(F)(F)F)c3)CC2)C1 [Example 23, {1-{1-[3-fluoro-5-(trifluoromethyl)benzoyl]piperidin-4-yl}-3-[4-(7H-pyrrolo[2,3-d]pyrimidin-4-yl)-1H-pyrazol-1-yl]azetidin-3-yl}acetonitrile] | 6.7 | ≤ 5 nM | 10 to 50 nM |
| N#CCC1(n2cc(-c3ncnc4[nH]ccc34)cn2)CN(C2CCN(C(=O)c3cc(Cl)cc(Cl)c3)CC2)C1 [Example 24, {1-[1-(3,5-dichlorobenzoyl)piperidin-4-yl]-3-[4-(7H-pyrrolo[2,3-d]pyrimidin-4-yl)-1H-pyrazol-1-yl]azetidin-3-yl}acetonitrile] | 6.6 | ≤ 5 nM | ≤ 10 nM |

Second part, the compound after the results:

| IC50 Ratio JAK2/JAK1 [1] | IC50 [2] | IC50 (Jak2 (a.a. 828-1132)) | Compound |
| --- | --- | --- | --- |
| 5.8 | ≤ 5 nM | 10 to 50 nM | N#CCC1(n2cc(-c3ncnc4[nH]ccc34)cn2)CN(C2CCN(C(=O)c3cccc(F)c3)CC2)C1 [Example 25, {1-[1-(3-fluorobenzoyl)piperidin-4-yl]-3-[4-(7H-pyrrolo[2,3-d]pyrimidin-4-yl)-1H-pyrazol-1-yl]azetidin-3-yl}acetonitrile] |
| 3.3 | ≤ 5 nM | ≤ 10 nM | COc1cc(C(=O)N2CCC(N3CC(CC#N)(n4cc(-c5ncnc6[nH]ccc56)cn4)C3)CC2)ccc1F [Example 26, {1-[1-(4-fluoro-3-methoxybenzoyl)piperidin-4-yl]-3-[4-(7H-pyrrolo[2,3-d]pyrimidin-4-yl)-1H-pyrazol-1-yl]azetidin-3-yl}acetonitrile] |
| 5.1 | 5 to 20 nM | 50 to 100 nM | COc1ccc(F)c(C(=O)N2CCC(N3CC(CC#N)(n4cc(-c5ncnc6[nH]ccc56)cn4)C3)CC2)c1 [Example 27, {1-[1-(2-fluoro-5-methoxybenzoyl)piperidin-4-yl]-3-[4-(7H-pyrrolo[2,3-d]pyrimidin-4-yl)-1H-pyrazol-1-yl]azetidin-3-yl}acetonitrile] |
| 8.5 | ≤ 5 nM | ≤ 10 nM | N#CCC1(n2cc(-c3ncnc4[nH]ccc34)cn2)CN(C2CCN(C(=O)c3cc(F)cc(Cl)c3)CC2)C1 [Example 28, {1-[1-(3-chloro-5-fluorobenzoyl)piperidin-4-yl]-3-[4-(7H-pyrrolo[2,3-d]pyrimidin-4-yl)-1H-pyrazol-1-yl]azetidin-3-yl}acetonitrile] |
| 7.2 | ≤ 5 nM | ≤ 10 nM | N#CCC1(n2cc(-c3ncnc4[nH]ccc34)cn2)CN(C2CCN(C(=O)c3cc(F)cc(Br)c3)CC2)C1 [Example 29, {1-[1-(3-bromo-5-fluorobenzoyl)piperidin-4-yl]-3-[4-(7H-pyrrolo[2,3-d]pyrimidin-4-yl)-1H-pyrazol-1-yl]azetidin-3-yl}acetonitrile] |
| 2.8 | ≤ 5 nM | ≤ 10 nM | N#CCC1(n2cc(-c3ncnc4[nH]ccc34)cn2)CN(C2CCN(C(=O)c3cc(Cl)sc3Cl)CC2)C1 [Example 30, {1-{1-[(2,5-dichloro-3-thienyl)carbonyl]piperidin-4-yl}-3-[4-(7H-pyrrolo[2,3-d]pyrimidin-4-yl)-1H-pyrazol-1-yl]azetidin-3-yl}acetonitrile] |
